Tested on: prostate
Assay: Photodynamic therapy of the dog prostate after direct intraprostatic injection of lemuteporfin and transurethral 690 nm light
Assay type: in vivo
Settings: mature intact mixed-breed dogs
Procedure: Eight mature, intact, mixed-breed dogs are premedicated with butorphanol (0.4 mg per kilogram of body weight), acepromazine (0.1 mg/kg), and atropine (0.4 mg/kg), all given by intramuscular injection. Anesthesia is induced with intravenous thiopental sodium (8 mg per 0.4536 kilograms of body weight) and maintained with inhaled isoflurane and oxygen (dosage as required for anesthetic effect). Lemuteporfin for injection (A-EA6 in U.S. Pat. No. 5,929,105) is reconstituted with Water for Injection to give a stock concentration of 2.0 mg/ml and diluted with 5% Dextrose in water to a concentration 0.2 mg/ml. A standard cystoscope is inserted into the urethra. Injections of the drug are then delivered to the prostate using a commercially available transurethral injection device (InjecTx™, San Jose, Calif., USA) which is compatible with the cystoscope. Two injections of 0.5 ml are given to each left lobe of the prostate and 2 injections of 1.0 ml are given to each right lobe of the prostate. The transurethral injection device is then removed and a guidewire is inserted through the working channel of the cystoscope. The activation-energy delivery device comprises: a cylindrical fibre optic with a 200 μm diameter core, a 25 mm long diffuser, and a power rating of 175 mW/cm (maximum power load, 437.5 mW); a reflective-cap fibre-centering balloon catheter with a 20 mm treatment window supplied with a guidewire for positioning the device in the urethra; and a 3 W 690 nm red-light diode laser (AOC, South Plainfield, N.J., USA). The catheter is inserted and positioned using the guidewire which is fed through an internal channel of the catheter. Once the catheter is in position the balloon is inflated to secure it in place. The guidewire is removed from the catheter and the fiber optic diffuser is inserted into the catheter and secured in place. The treatment assembly is positioned in the urethra using ultrasonic guidance. Ultrasound is also used to position the needles for four percutaneous intraprostatic injections (two per lobe separated by longitudinally by 1 cm). […]

[1] = 0.2 mg/ml intraprostatic injections, 690 nm light 25, 50 or 100 J/cm^2, after seven days

C=Cc1c(C)c2cc3nc(cc4[nH]c(cc5nc(cc1[nH]2)C(C)=C5CCC(=O)OCCO)c(CCC(=O)OCCO)c4C)[C@@]1(C)C3=CC=C(C(=O)OC)[C@H]1C(=O)OC [Lemuteporfin, lemuteporfin]
Bowel, bladder, and prostate sizes [1]: within normal ranges | PDT-associated damage in the urethra [1]: no significant PDT-associated damage | PDT-associated tissue damage in the target tissue (prostates) (0.2 mg/ml, 2 x 0.5 ml left lobe, 2 x 1.0 ml right lobe, 690 nm light 25, 50 or 100 J/cm^2 15 minutes after last injection, prostates harvested after seven days): evidence of PDT-associated tissue damage in the target tissue

Reference: patent US20080071331A1, “Photodynamic Therapy For The Treatment Of Prostatic Conditions” (QLT Inc., priority 2004, published 2008)
